# ChEMBL document CHEMBL4393660, “New pyrazole derivatives: Synthesis, anti-inflammatory activity, cycloxygenase inhibition assay and evaluation of mPGES” (Eur J Med Chem, 2019)
# pIC50: −log10 of the molar value. Activity calls are given as the source filed them. The rule behind the calls is not given here.
# How the values were obtained:
# [1] = molecular target: T1, Prostaglandin G/H synthase 2 (Homo sapiens, UniProt P35354); experiment: (§1) Inhibition of human recombinant COX-2 assessed as reduction in PGF2alpha formation using arachidonic acid as substrate preincubated with enzyme for 10 mins followed by substrate addition for 30 secs and measured after 1 hr by microplate reader based enzyme immunoassay
# T1 sequence (P35354 whole entry): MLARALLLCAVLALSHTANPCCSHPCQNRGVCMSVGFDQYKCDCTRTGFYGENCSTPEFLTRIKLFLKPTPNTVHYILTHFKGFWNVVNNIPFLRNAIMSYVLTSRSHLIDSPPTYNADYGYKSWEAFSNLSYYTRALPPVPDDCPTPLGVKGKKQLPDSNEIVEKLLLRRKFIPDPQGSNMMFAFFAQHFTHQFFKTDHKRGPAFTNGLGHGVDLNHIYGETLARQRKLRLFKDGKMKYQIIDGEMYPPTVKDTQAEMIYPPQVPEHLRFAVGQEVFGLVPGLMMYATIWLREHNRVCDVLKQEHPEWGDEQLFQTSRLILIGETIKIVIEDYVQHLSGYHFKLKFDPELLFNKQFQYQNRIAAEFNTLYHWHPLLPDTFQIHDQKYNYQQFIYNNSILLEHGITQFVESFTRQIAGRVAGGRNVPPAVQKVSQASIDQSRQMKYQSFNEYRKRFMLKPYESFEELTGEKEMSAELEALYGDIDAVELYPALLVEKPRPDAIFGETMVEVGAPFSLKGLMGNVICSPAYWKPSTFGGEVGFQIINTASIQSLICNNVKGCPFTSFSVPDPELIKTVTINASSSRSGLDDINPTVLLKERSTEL
# [2] = organism: Homo sapiens; experiment: as §1, with “Selectivity index, ratio” for “Inhibition”, “of IC50 for human recombinant COX1 to IC50 for” for “of”
# [3] = molecular target: Prostaglandin G/H synthase 1 (Homo sapiens, UniProt P23219); experiment: Inhibition of human recombinant COX1 assessed as reduction in PGF2alpha formation using arachidonic acid as substrate preincubated with enzyme for 10 mins followed by substrate addition for 30 secs and measured after 1 hr by microplate reader based enzyme immunoassay
# Sequence of Prostaglandin G/H synthase 1 (P23219 whole entry): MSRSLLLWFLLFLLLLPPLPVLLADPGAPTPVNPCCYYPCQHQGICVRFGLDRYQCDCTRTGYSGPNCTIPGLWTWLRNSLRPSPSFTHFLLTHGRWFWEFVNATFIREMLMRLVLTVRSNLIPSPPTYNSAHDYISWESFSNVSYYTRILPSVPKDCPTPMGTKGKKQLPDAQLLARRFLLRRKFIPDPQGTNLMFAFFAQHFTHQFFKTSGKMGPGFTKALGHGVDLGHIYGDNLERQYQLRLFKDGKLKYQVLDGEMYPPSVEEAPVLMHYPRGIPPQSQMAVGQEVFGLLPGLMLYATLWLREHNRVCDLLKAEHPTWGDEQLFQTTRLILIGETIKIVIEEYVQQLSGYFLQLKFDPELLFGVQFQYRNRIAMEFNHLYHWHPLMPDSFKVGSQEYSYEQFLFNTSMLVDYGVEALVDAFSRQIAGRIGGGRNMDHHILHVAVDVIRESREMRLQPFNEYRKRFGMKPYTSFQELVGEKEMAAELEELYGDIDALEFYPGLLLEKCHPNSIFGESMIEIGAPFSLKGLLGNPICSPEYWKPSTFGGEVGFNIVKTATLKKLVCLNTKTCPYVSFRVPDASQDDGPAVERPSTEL
# [4] = Toxicity in carrageenan-induced albino rat paw edema model assessed as Inhibition of cytosolic PGE2 synthase expression in plasma at 10 umol/kg, sc treated 1 hr prior to carrageenan challenge measured after 2 hrs by microplate reader based monoclonal sandwich ELISA assay; type: organism-based; conditions: in vivo
# [5] = tested on: Rattus norvegicus; experiment: Anti-inflammatory activity against carrageenan-induced albino rat paw edema model assessed as inhibition of PGE2 production in plasma at 10 umol/kg, sc treated 1 hr prior to carrageenan challenge measured after 2 hrs by microplate reader based enzyme immunoassay relative to control; type: functional
# [6] = tested on: Rattus norvegicus; experiment: (§2) Anti-inflammatory activity against carrageenan-induced albino rat paw edema model assessed as inhibition of carrageenan-induced right hind paw edema at 10 umol/kg, sc treated 1 hr prior to carrageenan challenge and measured at 1 hr after carrageenan treatment by plethysmometer relative to control; type: functional
# [7] = tested on: Rattus norvegicus; experiment: Anti-inflammatory activity against carrageenan-induced albino rat paw edema model assessed as inhibition of carrageenan-induced right hind paw edema at 10 umol/kg, sc treated 1 hr prior to carrageenan challenge and measured at 3 hrs after carrageenan treatment by plethysmometer relative to control; type: functional
# [8] = tested on: Rattus norvegicus; experiment: Anti-inflammatory activity against carrageenan-induced albino rat paw edema model assessed as inhibition of microsomal PGE2 synthase expression in plasma at 10 umol/kg, sc treated 1 hr prior to carrageenan challenge measured after 2 hrs by microplate reader based monoclonal sandwich ELISA assay; type: functional
# [9] = tested on: Rattus norvegicus; experiment: as §2, with “immediately” for “at 1 hr”; type: functional
# [10] = tested on: Rattus norvegicus; experiment: Anti-inflammatory activity against carrageenan-induced albino rat paw edema model assessed as inhibition of carrageenan-induced right hind paw edema at 10 umol/kg, sc treated 1 hr prior to carrageenan challenge and measured at 6 hrs after carrageenan treatment by plethysmometer relative to control; type: functional
# [11] = tested on: Rattus norvegicus; experiment: Anti-inflammatory activity against carrageenan-induced albino rat paw edema model assessed as inhibition of carrageenan-induced right hind paw edema at 10 umol/kg, sc treated 1 hr prior to carrageenan challenge and measured at 2 hrs after carrageenan treatment by plethysmometer relative to control; type: functional
# [12] = tested on: Rattus norvegicus; experiment: Ratio of inhibition of microsomal PGE2 synthase expression to inhibition of cytosolic PGE2 synthase expression in plasma of carrageenan-induced albino rat paw edema model at 10 umol/kg, sc treated 1 hr prior to carrageenan challenge measured after 2 hrs by microplate reader based monoclonal sandwich ELISA assay
pIC50 [1],Ratio IC50 [2],pIC50 [3],Structure (SMILES),inhibition (INH) [4],inhibition in vivo at 10 µmol/kg [5],inhibition in vivo at 10 µmol/kg [6],inhibition in vivo at 10 µmol/kg [7],inhibition in vivo at 10 µmol/kg [8],inhibition in vivo at 10 µmol/kg [9],inhibition in vivo at 10 µmol/kg [10],inhibition in vivo at 10 µmol/kg [11],fold change (FC) [12],inhibition [6],inhibition [9]
7.24,2.12,6.91,N#Cc1cnn(-c2ccc(S(N)(=O)=O)cc2)c1NC(=O)CCCl,–,–,–,–,–,–,–,–,–,–,–
7.08,2.46,6.69,N#Cc1cnn(-c2ccc(S(N)(=O)=O)cc2)c1/N=C/c1ccccc1,–,–,–,–,–,–,–,–,–,–,–
6.97,4.67,6.30,CC(Cl)C(=O)Nc1c(C#N)cnn1-c1ccc(S(N)(=O)=O)cc1 (configuration not stated),–,–,–,–,–,–,–,–,–,–,–
7.70,5.24,6.98,N#Cc1cnn(-c2ccc(S(N)(=O)=O)cc2)c1NC(=O)CCl,31.55%,67.5%,16.7%,40.1%,80.7%,13.6%,46%,26.5%,2.5,–,–
7.25,1.3,7.14,N#Cc1cnn(-c2ccc(S(N)(=O)=O)cc2)c1NC(=O)c1ccccc1,–,–,–,–,–,–,–,–,–,–,–

# Further lines, the compound ahead of its results:
Structure (SMILES),pIC50 [1],Ratio IC50 [2],pIC50 [3],inhibition (INH) [4],inhibition in vivo at 10 µmol/kg [5],inhibition in vivo at 10 µmol/kg [6],inhibition in vivo at 10 µmol/kg [7],inhibition in vivo at 10 µmol/kg [8],inhibition in vivo at 10 µmol/kg [9],inhibition in vivo at 10 µmol/kg [10],inhibition in vivo at 10 µmol/kg [11],fold change (FC) [12],inhibition [6],inhibition [9]
N#Cc1cnn(-c2ccc(S(N)(=O)=O)cc2)c1/N=C/c1ccc(Cl)cc1,6.72,0.89,6.77,–,–,–,–,–,–,–,–,–,–,–
N#Cc1cnn(-c2ccc(S(N)(=O)=O)cc2)c1/N=C/c1ccc(Br)cc1,7.19,1.78,6.94,–,–,–,–,–,–,–,–,–,–,–
CC(=O)Nc1c(C#N)cnn1-c1ccc(S(=O)(=O)NC(C)=O)cc1,7.21,14.3,6.06,31.08%,65.3%,9.26%,35%,80%,0%,44.3%,17.5%,–,–,–
COc1ccc(/C=N/c2c(C#N)cnn2-c2ccc(S(N)(=O)=O)cc2)cc1OC,7.36,3.72,6.79,–,–,–,–,–,–,–,–,–,–,–
N#Cc1cnn(-c2ccc(S(N)(=O)=O)cc2)c1NC(=O)CN1CCOCC1,7.47,1.89,7.19,–,–,–,–,–,–,–,–,–,–,–
Cc1ccc(-c2cc(C(F)(F)F)nn2-c2ccc(S(N)(=O)=O)cc2)cc1 [CELECOXIB],–,–,–,51.11%,69.6%,11.1%,35%,80%,6.06%,42.6%,8.99%,–,–,–
COc1ccc(/C=N/c2c(C#N)cnn2-c2ccc(S(N)(=O)=O)cc2)cc1,7.41,13.1,6.29,52.43%,64.4%,–,33.6%,80.3%,–,42.3%,5.29%,–,inactive,inactive
N#Cc1cnn(-c2ccc(S(N)(=O)=O)cc2)c1NC(=O)CCN1CCOCC1,7.40,22.2,6.06,44.43%,76.2%,2.04%,39.5%,74.1%,–,44%,27.5%,1.5,–,inactive
CC(C(=O)Nc1c(C#N)cnn1-c1ccc(S(N)(=O)=O)cc1)N1CCOCC1 (configuration not stated),6.91,1.31,6.79,–,–,–,–,–,–,–,–,–,–,–
N#Cc1cnn(-c2ccc(S(N)(=O)=O)cc2)c1/N=C/c1ccc(F)cc1,7.41,17.5,6.17,48.52%,73.9%,1.85%,36.7%,74.7%,–,43%,7.94%,–,–,inactive
